Assay results from PMC12147183, “Lacritin cleavage-potentiated targeting of iron - respiratory reciprocity promotes bacterial death” (The Journal of Biological Chemistry, 2025).
Entries after “also recorded” stand apart in the source; their conditions may differ. Peptide text beside a SMILES is read from it. * marks the point of attachment. FITC = O=C1OC2(c3ccc(O)cc3Oc3cc(O)ccc32)c2ccc(NC(=S)*)cc21; Ahx = NCCCCCC(=O)O

Legend:
[1] = system: P. aeruginosa PA14; assay: Imaging flow cytometry of peptide entry; type: cell-based, Pseudomonas aeruginosa; conditions: 100 or 10 μM, PA14 10^6 cfu/ml, 1 h at 35 °C, trypsin EDTA to remove surface peptide, no ethanol, n = 3
Description: 0.5 ml of 10^6 cfu/ml PA14 cells in 1 mM Na2HPO4, 0.18 mM KH2PO4, 0.27 mM KCl, and 13.7 mM NaCl (pH 7.2) were incubated for 1 h at 35 °C with 10 or 100 μM FITC-N-104 (without, or as a positive control with 70% ethanol) or with the negative control FITC-C-95. Cells were subsequently washed in the same buffer, pelleted, treated with 100 μl of 0.25% trypsin EDTA (Gibco, 25200-056) for 5 min at 35 °C to remove surface-attached peptide, further washed and pelleted, resuspended in 100 μl of the same buffer for fixation with an equal volume of 8% formaldehyde (18,814, Polysciences Inc) and then imaged using an Amnis Imagestream X Mark II imaging flow cytometer. 500 to 1000 counts were analyzed per replicate. To ensure the exclusion of debris and out-of-focus cells, Gradient-RMS (average slope spanning three pixels in an image; 0–100) versus Area (number of pixels in an image reported in square microns; 1–200) of channel one was plotted for each experiment with more than 85% of the data falling within the cells-in-focus gate. The fluorescence intensity values of FITC-positive cells (Intensity-MC, channel 2) were analyzed using the IDEAS version 6.2 program (Amnis, Seattle WA) and plotted as histograms with a bin number of 100. FITC-positive cells were selected based on histograms generated from the positive control sample.

[2] = for solubility in common solvents: water, DMSO, methanol, isopropanol, acetonitrile
Excerpt: Guided by TMHMM v 2 and DeepTMHMM 1.0.24, we synthesized peptides corresponding to PotH’s predicted outer loops 2 ([…]) and outer loop 3 ([…]). Fifty-three amino acid PotH's OL1 was not synthesized with predicted poor solubility. We also synthesized peptides corresponding to FeoB's predicted outer loop 1 ([…]), outer loop 2 ([…]), outer loop 3 ([…]), and outer loop 5 (ATFAA). […] For these, all amino and carboxy termini were acetylated and amidated, respectively (Supporting Information Reagents Table). All synthesized peptides were aliquoted and stored lyophilized at −80 °C in a dry environment.

[3] = system: P. aeruginosa PA14; assay: SYTOX Orange PA14 membrane disruption assay; conditions: 25 μM peptide, PA14 10^7 cfu/ml, 1 h at 35 °C, 5 μM SYTOX Orange; positive control 70% ethanol
[4] = system: ^14C-spermidine uptake by PA14; type: cell-based, Pseudomonas aeruginosa; conditions: 25 μM peptide, n = 6
Description: 100 μl aliquots (0.8 × 10^8 cfu) of PA14 cell cultures in 1 mM Na2HPO4, 0.18 mM KH2PO4, 0.27 mM KCl, 13.7 mM NaCl without or with 1, 10, 25, 50 or 100 μM N-104 (or N-80/C-25 or C-95) for 45 min at 35 °C were incubated with 1 μl of 10 mM [1,4-^14C]putrescine (0.1 mCi/ml; ARC-0245–250, American Radiolabeled Chemicals) or [1,4-^14C]spermidine (0.1 mCi/ml; ARC-3138–50, American Radiolabeled Chemicals) for 15 min at 35 °C. Cell pellets were washed four times with 100 μl of 10 mM Na2HPO4, 1.8 mM KH2PO4, 2.7 mM KCl, 137 mM NaCl (pH 7.2) and then transferred to 4 ml of scintillation fluid (1200.437, PerkinElmer OptiPhase HiSafe 3) for analysis in a Beckman Coulter LS6500. Also assessed was radioactivity from the last wash. Single-molecule transportation per cell was estimated using standard curves for each radiolabeled polyamine.

[5] = system: Fe^2+ uptake by PA14; type: cell-based, Pseudomonas aeruginosa; conditions: 25 μM peptide, n = 3
Description: Iron depletion was induced in PA14 cells (5 × 10^9 cfu in 10 ml 10 mM Na2HPO4, 1.8 mM KH2PO4, 2.7 mM KCl, 137 mM NaCl (pH 7.2) by treatment with the chelator 1 mM 2,2′-bipyridyl at room temperature for 1 h. After washing twice with 0.9% NaCl, cells were suspended in 1 ml of 1 mM Na2HPO4, 0.18 mM KH2PO4, 0.27 mM KCl, 13.7 mM NaCl for treatment without or with 1, 10, 25, 50 or 100 μM of N-104 (or negative control N-80/C-25 or C-95) for 45 min at 35 °C, incubated at the same temperature for 15 min with 100 μM FeSO4 and 13 mM ascorbic acid, washed twice with 1 mM Na2HPO4, 0.18 mM KH2PO4, 0.27 mM KCl, and 13.7 mM NaCl, and pelleted at 12,000g. The ferrozine assay ([54]) was subsequently employed. Briefly, cells in pellets were lysed with 20 μl of 50 mM NaOH, partially neutralized with 20 μl of 10 mM HCl, subjected to iron release with 20 μl of acidified 0.29 M KMnO4 for 30 min at 80 °C, cooled to room temperature, incubated with 7 μl of 30 mM ferrozine, 1.1 μl of 180 mM neocuproine, 15 μl of 5 M ammonium acetate and 15 μl of 1 M ascorbic acid for 30 min at room temperature and then centrifuged at 21,000g for 10 min. Cellular iron uptake could then be assessed from the supernatant OD565. Single-molecule transport per cell was estimated using a standard curve.

[6] = system: P. aeruginosa PA14; assay: PA14 viability (Alamar Blue, CFU) with exogenous polyamines; type: cell-based, Pseudomonas aeruginosa; conditions: Alamar Blue and CFU; for protection of PA14 against 5 μM N-104 killing: 5 to 50 μM exogenous polyamine, n = 3
[7] = system: wild-type E. coli K-12; assay: Alamar Blue viability assay of wild-type E. coli K-12; type: cell-based, Escherichia coli; conditions: 100 μM, wild-type E. coli K-12 10^6 cfu/ml, 37 °C, hourly, n = 3
[8] = system: P. aeruginosa PA14; conditions: 0-25 μM FITC-N-104 or 2-25 μM Janelia Fluor 549-tagged N-104, PA14 10^6 cfu/ml, 8 h
Description: After overnight incubation at 37 °C, plates were analyzed on a ChemiDoc XRS (Bio-Rad).

[9] = system: P. aeruginosa PA14; type: cell-based, Pseudomonas aeruginosa
Description: Janelia Fluor 549-N-104 and -C-95 (each 25 μg) in 20 μl of M9 minimal salts were incubated with ∼3.75 × 10^9 cfu of pelleted PA14 cells for 1 h at 35 °C, washed four times with filtered 10 mM Na2HPO4, 1.8 mM KH2PO4, 2.7 mM KCl, 137 mM NaCl (pH 7.2), and then treated with 5 μM SYTOX Green to assess membrane integrity. Stained cells (1 μl) were immobilized on coverslip supported 1.5% agarose pads for imaging on a custom-built inverted fluorescence microscope, using 1 W/cm^2 of 561-nm laser light (Genesis MX561 MTM, Coherent) to excite Janelia Fluor 549 Maleimide and 4 mW/cm^2 of 488-nm laser light (Coherent) to excite SYTOX Green. Emitted light collected using an oil immersion objective (PLSAPO, 60×, 1.4 NA) was passed through a filter set (zt440/488/561rpc, Chroma Technology) to block excitation light with separation of Janelia Fluor 549 Maleimide and SYTOX Green emission using a diochroic beam splitter (T5g0lpxr-uf3, Chroma Technology) as collected on separate sCMOS cameras (ORCA-Flash 4.0 V2, Hamamatsu Photonics). Brightfield images were collected to obtain the total number of cells in each field of view.

## CC(C)C[C@H](NC(=O)[C@H](CCCCN)NC(=O)[C@H](CCC(N)=O)NC(=O)[C@H](C)NC(=O)CCCCCNC(=S)Nc1ccc2c(c1)C(=O)OC21c2ccc(O)cc2Oc2cc(O)ccc21)C(=O)N[C@@H](CC(C)C)C(=O)N[C@@H](CCCCN)C(=O)N[C@@H](CCCCN)C(=O)N[C@@H](Cc1ccccc1)C(=O)N[C@@H](CO)C(=O)N[C@@H](CC(C)C)C(=O)N[C@@H](CC(C)C)C(=O)N[C@@H](CCCCN)C(=O)N1CCC[C@H]1C(=O)N[C@@H](Cc1c[nH]c2ccccc12)C(=O)N[C@@H](C)C(=O)O [FITC-N-104] ({FITC-Ahx}-AQKLLKKFSLLKPWA-OH)
[1]
  intracellular FITC fluorescence: substantial intracellular; also recorded: In contrast to FITC-C-95, substantial intracellular FITC-N-104 fluorescence was apparent at either 100 or 10 µM concentrations

## CC[C@H](C)[C@H](NC(C)=O)C(=O)N[C@@H](CC(N)=O)C(=O)N[C@H](C(=O)NCC(=O)NCC(=O)N[C@@H](C)C(=O)N[C@@H](CC(C)C)C(=O)N[C@@H](CCC(N)=O)C(=O)N1CCC[C@H]1C(N)=O)[C@@H](C)CC [FeoB OL1 peptide] (Ac-INIGGALQP-NH2)
[2]
  solvents in which solubility was identified: formic or acetic acid
  solubility in common solvents: not water, DMSO, methanol, isopropanol or acetonitrile soluble

## CC(=O)NCC(=O)N[C@@H](C)C(=O)N[C@@H](Cc1ccccc1)C(=O)N[C@@H](Cc1ccccc1)C(=O)NCC(=O)N[C@@H](CCC(N)=O)C(=O)NCC(=O)NCC(=O)N[C@@H](C)C(N)=O [FeoB OL3 peptide] (Ac-GAFFGQGGA-NH2)
[2]
  solvents in which solubility was identified: ammonia water and acetic acid
  solubility in common solvents: not water, DMSO, methanol, isopropanol or acetonitrile soluble

## CSCC[C@H](NC(=O)CNC(=O)[C@H](CCCCN)NC(=O)CNC(=O)[C@H](C)NC(=O)[C@H](CCCCN)NC(=O)[C@H](C)NC(C)=O)C(=O)N[C@@H](Cc1c[nH]cn1)C(=O)NCC(=O)NCC(=O)N[C@H](C(=O)N1CCC[C@H]1C(=O)NCC(=O)NCC(N)=O)C(C)C [N-80/C-25, reference compound] (Ac-AKAGKGMHGGVPGG-NH2)
[3]
  membrane disruption (SYTOX Orange uptake): not membrane disruptive
[4]
  effect on ^14C-spermidine uptake: also inhibitory
[5]
  effect on exogenous Fe^2+ uptake: partially inhibitory

## NCCCCN [Putrescine]
[6]
  protection of PA14 against 5 μM N-104 killing: did not offer the same benefit
[6]; 100-2000 µM polyamine
  toxicity to PA14: nor was toxic at high concentrations

## CC1(C)S[C@@H]2[C@H](NC(=O)[C@H](N)c3ccccc3)C(=O)N2[C@H]1C(=O)O [ampicillin]
[7]
  bacterial metabolic activity (Alamar Blue): inhibitory

## NCCCCNCCCN [spermidine]
[6]
  protection of PA14 against 5 μM N-104 killing: increasingly protected
[6]; 100-2000 µM polyamine
  concentration at which toxic to PA14: exceeding 100 μM

## JaneliaFluor-CAQKLLKKFSLLKPWA [JanFl-N-104, Cys(N)-N-104 conjugated to Janelia Fluor 549 maleimide]
[8]
  effect of tagging on N-104 activity in CFU assay: partially affected
[9]
  cellular staining pattern: peripheral internal ring

## JaneliaFluor-CEDASSDSTGADPAQEAGTSKPNEE [JanFl-C-95, Cys(N)-C-95 conjugated to Janelia Fluor 549 maleimide, reference compound]
[9]
  cellular staining pattern: lacked staining
